Assay results reported in patent US20240254132A1, “COMPOUNDS, COMPOSITIONS AND METHODS” (Denali Therapeutics Inc., priority 2021, published 2024).
pIC50: −log10 of the molar value.

Tested on: IL-1β secretion, THP-1 cells
Test: IL-1β secretion assay in PMA-differentiated THP-1 cells (LPS + nigericin stimulation, IL-1β ELISA)
Assay type: cell-based
Settings: Homo sapiens, LPS 25 ng/mL, IL-1β by ELISA
Procedure: Compounds as provided herein were tested in the following assay. Cell culture medium employed contained RPMI 1640 medium (89%), FBS (10%), Pen/Strep (1%), and 2-mercaptoethanol (0.05 mm). Freezing medium was made up of 90% FBS and 10% DMSO. THP-1 cells were removed from the liquid nitrogen and placed into a 37° C. water bath to thaw, until signs of ice dissipated. The cells were then added to 9 mL of warm cell culture medium and centrifuged for 5 minutes at 1000 rpm. The supernatant was discarded, and the cells were resuspended in new cell culture medium. THP-1 cells were then split and cultured in the cell culture medium, being passaged every 2-3 days with the cell density will be maintained between 5×10^5 and 1.5×10^6 viable cells/mL.
Procedure for […], Secretion Assay in 384-Well Plates
PMA was dissolved in DMSO to make a stock solution at 5 mg/mL and stored in 10 μl aliquots at −20° C. for single use. PMA is added to normal growth medium. LPS was diluted with 1 mL of water solution to provide a 1 mg/mL stock solution and stored in 15 μl aliquots at −20° C. for single use. Nigericin is diluted in ice cold 100% ethanol to 5 mg/mL (6.7 mM) and stored in 75 μL aliquots at −20° C. for single use. Serum-free media contains RPMI 1640 medium (99%), Pen/Strep (1%), and 2-mercaptoethanol (0.05 mM). The two control conditions used to qualify and normalize test compound dose-response curves were as follows: High Control=25 ng/mL LPS, 5 μM Nigericin, 0.5% DMSO, Low Control=25 ng/mL, LPS, 0.5% DMSO.
THP-1 cells were diluted to provide a suspension at a concentration of 1.0×10^6 cells/mL with the total volume of suspension required to enable the desired number of assay plates. The growth media was supplemented with PMA (5 ng/mL final concentration) and the cells were incubated at 37° C. under a humidified atmosphere of 5% CO2 for 40 h.
All media was carefully aspirated from each culture flask. The cells were washed carefully with 1×DPBS. The cells were then briefly digested with trypsin LE for 5 minutes at 23° C. and immediately resuspended in cell growth media. After resuspension, the cells were centrifuged at 1000 rpm for 3 minutes and the supernatant was discarded. The cells were resuspended in DPBS and once again centrifuged at 1000 rpm for 5 minutes. The supernatant was discarded and the cell pellet was resuspended in serum-free media supplemented with LPS (25 ng/mL final concentration) to enable the distribution of 30K THP-1 cells within 45 μL of media into each well of 384-well PDL-coated plates. The 384-well plates were then incubated at 37° C. under a humidified atmosphere of 5% CO2 for 2 h. Following this period, test compounds were dispensed by Tecan across the desired concentration range with all wells normalized to a final 0.5% DMSO concentration. The plates were then incubated at 37° C. under a humidified atmosphere of 5% CO2 for 1 h. Following this period, 5 μL of the 5 mg/mL nigericin stock solution was added to each of the appropriate wells and plates were centrifuged at 1000 rpm for 30 seconds. The plates were the immediately reintroduced to the incubator at 37° C. under a humidified atmosphere of 5% CO2 for 2 h. After this time, 35 μL/well of supernatant was collected and transferred into v-bottom plate and centrifuged at 1000 rpm for 1 minute. These supernatant aliquots were analyzed using an IL-Iβ detection kit as described below. If needed, the test samples could be snap frozen and stored at −80° C. until analyzed.
To prepare each ELISA plate, capture antibody (mAb Mt175) was diluted with PBS to a final concentration of 2 μg/mL and then 20 μL of this solution was added to each well of the ELISA plate. Each plate was allowed to incubate overnight at 4° C. The next day, the capture antibody solution was removed and discarded. Each ELISA plate was washed 4 times with PBST followed by the addition of 25 μL/well of blocking buffer (Licor-927-40010) supplemented with 0.1% Tween 20. […]

- pIC50 (THP-1, class symbol): > 5.00
- pIC50 (THP-1, numeric value): 6.03
SMILES: CC(C(=O)Nc1ncc(F)cn1)N1C(=O)c2ccc(Br)c(F)c2C2(CC2)C1=O (centres unmarked) [Example 21, 2-(6′-bromo-5′-fluoro-1′,3′-dioxospiro[cyclopropane-1,4′-isoquinoline]-2′-yl)-N-(5-fluoropyrimidin-2-yl)propanamide]
